Assay results taken from ChEMBL document CHEMBL1201862, “PubChem BioAssay data set” (2004).
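Briefly, cells in 96-well plates were exposed to five compound concentrations for 48 h, and endpoints were estimated by linear interpolation. At the GI50, growth is halved.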 Active and inactive are the calls of the source. No stated cut-off is given here; in the data, active = GI50 up to about 1.1 µM and inactive = higher.

How the values were obtained:
Assay in all cases: growth of human tumour cells (NCI), 48 h
[1] = system: K562
[2] = system: KM-20L2
[3] = system: COLO 205
[4] = system: A549
[5] = system: SK-MEL-28
[6] = system: UACC-62
[7] = system: HCC 2998
[8] = system: RPMI-8226
[9] = system: 786-0
[10] = system: ACHN
[11] = system: NCI-H23
[12] = system: OVCAR-8
[13] = system: SW-620
[14] = system: HT-29
[15] = system: HOP-92
[16] = system: OVCAR-4
[17] = system: LXFL 529
[18] = system: RXF 393
[19] = system: Malme-3M
[20] = system: NCI-H460
[21] = system: LOX IMVI
[22] = system: SF-539
[23] = system: NCI-H522
[24] = system: DLD-1
[25] = system: KM12
[26] = system: OVCAR-5
[27] = system: HCT-15
[28] = system: CCRF-CEM
[29] = system: SN12C
[30] = system: SF-295
[31] = system: SNB-75
[32] = system: SF-268
[33] = system: IGROV-1
[34] = system: DMS-273
[35] = system: RXF 631
[36] = system: HOP-18
[37] = system: EKVX
[38] = system: OVCAR-3
[39] = system: SK-OV-3
[40] = system: M19-MEL
[41] = system: SK-MEL-5
[42] = system: UACC-257
[43] = system: SK-MEL-2
[44] = system: UO-31
[45] = system: U-251
[46] = system: TK-10
[47] = system: M14
[48] = system: HL-60
[49] = system: MOLT-4
[50] = system: DMS-114
[51] = system: CAKI-1
[52] = system: HOP-62
[53] = system: A498
[54] = system: SNB-78
[55] = system: SR
[56] = system: XF498
[57] = system: HCT-116
[58] = system: SNB-19

OC1c2ccccc2C2C(O)c3ccccc3C12 (configuration not stated)
GI50 [1]: > 100 µM (inactive)
GI50 [2]: > 100 µM (inactive)
GI50 [3]: > 100 µM (inactive)
GI50 [4]: > 100 µM (inactive)
GI50 [5]: > 100 µM (inactive)
GI50 [6]: > 100 µM (inactive)
GI50 [7]: > 100 µM (inactive)
GI50 [8]: > 100 µM (inactive)
GI50 [9]: > 100 µM (inactive)
GI50 [10]: > 100 µM (inactive)
GI50 [11]: > 100 µM (inactive)
GI50 [12]: > 100 µM (inactive)
GI50 [13]: > 100 µM (inactive)
GI50 [14]: > 100 µM (inactive)
GI50 [15]: > 100 µM (inactive)
GI50 [16]: > 100 µM (inactive)
GI50 [17]: > 100 µM (inactive)
GI50 [18]: > 100 µM (inactive)
GI50 [19]: > 100 µM (inactive)
GI50 [20]: > 100 µM (inactive)
GI50 [21]: > 100 µM (inactive)
GI50 [22]: > 100 µM (inactive)
GI50 [23]: > 100 µM (inactive)
GI50 [24]: > 100 µM (inactive)
GI50 [25]: > 100 µM (inactive)
GI50 [26]: > 100 µM (inactive)
GI50 [27]: > 100 µM
GI50 [28]: > 100 µM (inactive)
GI50 [29]: > 100 µM (inactive)
GI50 [30]: > 100 µM (inactive)
GI50 [31]: 89.5 µM (inactive)
GI50 [32]: > 100 µM (inactive)
GI50 [33]: > 100 µM (inactive)
GI50 [34]: > 100 µM (inactive)
GI50 [35]: > 100 µM (inactive)
GI50 [36]: > 100 µM (inactive)
GI50 [37]: > 100 µM (inactive)
GI50 [38]: > 100 µM (inactive)
GI50 [39]: > 100 µM (inactive)
GI50 [40]: > 100 µM (inactive)
GI50 [41]: > 100 µM (inactive)
GI50 [42]: > 100 µM (inactive)
GI50 [43]: > 100 µM (inactive)
GI50 [44]: > 100 µM (inactive)
GI50 [45]: > 100 µM (inactive)
GI50 [46]: > 100 µM (inactive)
GI50 [47]: > 100 µM (inactive)
GI50 [48]: > 100 µM (inactive)
GI50 [49]: > 100 µM (inactive)
GI50 [50]: > 100 µM (inactive)
GI50 [51]: > 100 µM (inactive)
GI50 [52]: > 100 µM (inactive)

CCC1(N=[N+]=[N-])C(=O)c2ccccc2N(c2ccccc2)C1=O (configuration not stated)
GI50 [53]: > 100 µM (inactive)
GI50 [1]: > 100 µM (inactive)
GI50 [2]: > 100 µM (inactive)
GI50 [3]: > 100 µM (inactive)
GI50 [54]: > 100 µM (inactive)
GI50 [4]: > 100 µM (inactive)
GI50 [5]: > 100 µM (inactive)
GI50 [6]: > 100 µM (inactive)
GI50 [55]: > 100 µM (inactive)
GI50 [7]: > 100 µM (inactive)
GI50 [9]: > 100 µM (inactive)
GI50 [10]: > 100 µM (inactive)
GI50 [11]: > 100 µM (inactive)
GI50 [12]: > 100 µM (inactive)
GI50 [13]: > 100 µM (inactive)
GI50 [14]: > 100 µM (inactive)
GI50 [15]: > 100 µM (inactive)
GI50 [16]: > 100 µM (inactive)
GI50 [17]: > 100 µM (inactive)
GI50 [19]: > 100 µM (inactive)
GI50 [20]: > 100 µM (inactive)
GI50 [21]: > 100 µM (inactive)
GI50 [22]: > 100 µM (inactive)
GI50 [23]: > 100 µM (inactive)
GI50 [24]: > 100 µM (inactive)
GI50 [25]: > 100 µM (inactive)
GI50 [26]: > 100 µM (inactive)
GI50 [27]: > 100 µM
GI50 [28]: > 100 µM (inactive)
GI50 [29]: > 100 µM (inactive)
GI50 [30]: > 100 µM (inactive)
GI50 [31]: > 100 µM (inactive)
GI50 [32]: > 100 µM (inactive)
GI50 [33]: > 100 µM (inactive)
GI50 [34]: > 100 µM (inactive)
GI50 [36]: > 100 µM (inactive)
GI50 [37]: > 100 µM (inactive)
GI50 [38]: > 100 µM (inactive)
GI50 [39]: > 100 µM (inactive)
GI50 [40]: > 100 µM (inactive)
GI50 [56]: > 100 µM (inactive)
GI50 [41]: > 100 µM (inactive)
GI50 [42]: > 100 µM (inactive)
GI50 [43]: > 100 µM (inactive)
GI50 [44]: > 100 µM (inactive)
GI50 [45]: > 100 µM (inactive)
GI50 [46]: > 100 µM (inactive)
GI50 [57]: > 100 µM (inactive)
GI50 [58]: > 100 µM (inactive)
GI50 [47]: > 100 µM (inactive)
GI50 [48]: > 100 µM (inactive)
GI50 [49]: > 100 µM (inactive)
GI50 [50]: > 100 µM (inactive)
GI50 [51]: > 100 µM (inactive)
GI50 [52]: > 100 µM (inactive)
